From US20230398130A1, “METHODS AND COMPOSITIONS FOR DIFFERENTIATING STEM CELLS” (Massachusetts Institute of Technology, priority 2020, published 2023)

Key:
[1] = test system: ISC-enriched organoids; experiment: Primary screen, 384-well 2.5-D organoid differentiation (ENR+CD, 6 days): basal lysozyme secretion (LYZ.NS); format: cell-based, murine; conditions: for Dose.FC.LYZ.NS: FC vs plate median; for SSMD.LYZ.NS: strictly standardized mean difference
Source text: (§1) High-throughput screening.

[2] = test system: ISC-enriched organoids; experiment: Primary screen, 384-well 2.5-D organoid differentiation (ENR+CD, 6 days): carbachol-induced lysozyme secretion (LYZ.S); format: cell-based, murine; conditions: for Dose.FC.LYZ.S: FC vs plate median; for Z.LYZ.S: standard z score; for SSMD.LYZ.S: strictly standardized mean difference
Source text: as §1

[3] = test system: ISC-enriched organoids; experiment: Primary screen, 384-well 2.5-D organoid differentiation (ENR+CD, 6 days, Target Selective Inhibitor Library, vs whole-plate median): ATP (CellTiter-Glo 3D, CTG); conditions: for Dose.FC.CTG: FC vs plate median; for SSMD.CTG: strictly standardized mean difference
[4] = Dose 0.08 uM, standard z score of FC
[5] = Dose 0.40 uM, standard z score of FC
[6] = Dose 2.00 uM, standard z score of FC
[7] = Dose 10.00 uM, standard z score of FC
[8] = primary screen, dose 0.08 uM, ENR+CD 6 days
[9] = primary screen, dose 0.08 uM, standard z score of FC
[10] = primary screen, dose 0.40 uM, ENR+CD 6 days
[11] = primary screen, dose 0.40 uM, standard z score of FC
[12] = primary screen, dose 2.00 uM, ENR+CD 6 days
[13] = primary screen, dose 2.00 uM, standard z score of FC
[14] = primary screen, dose 10.00 uM, ENR+CD 6 days
[15] = primary screen, dose 10.00 uM, standard z score of FC
[16] = Dose 0.08 uM, primary screen, standard z score
[17] = Dose 0.40 uM, primary screen, standard z score
[18] = Dose 2.00 uM, primary screen, standard z score
[19] = Dose 10.00 uM, primary screen, standard z score
[20] = primary screen, 1st of the 4 dose lines of the treatment (dose not given)
[21] = primary screen, 2nd of the 4 dose lines of the treatment (dose not given)
[22] = primary screen, 3rd of the 4 dose lines of the treatment (dose not given)
[23] = primary screen, 4th of the 4 dose lines of the treatment (dose not given)

Q: Which results are given for `C[C@H]1COC2=C1C(=O)C(=O)c1c2ccc2c1CCCC2(C)C` [Cryptotanshinone]?
A: Dose.FC.LYZ.NS ([1]; Dose 0.08 uM, ENR+CD, 6 days): 0.143 log 2 fold change; Z.LYZ.NS [1, 4]: 1.243; Dose.FC.LYZ.NS ([1]; Dose 0.40 uM, ENR+CD, 6 days): −0.120 log 2 fold change; Z.LYZ.NS [1, 5]: −1.047; Dose.FC.LYZ.NS ([1]; Dose 2.00 uM, ENR+CD, 6 days): −0.182 log 2 fold change; Z.LYZ.NS [1, 6]: −1.585; Dose.FC.LYZ.NS ([1]; Dose 10.00 uM, ENR+CD, 6 days): −0.288 log 2 fold change; Z.LYZ.NS [1, 7]: −2.506; Dose.FC.LYZ.S ([2]; Dose 0.08 uM, ENR+CD, 6 days): 0.156 log 2 fold change; Dose.FC.LYZ.S ([2]; Dose 0.40 uM, ENR+CD, 6 days): −0.105 log 2 fold change; Dose.FC.LYZ.S ([2]; Dose 2.00 uM, ENR+CD, 6 days): −0.288 log 2 fold change; Dose.FC.LYZ.S ([2]; Dose 10.00 uM, ENR+CD, 6 days): −0.432 log 2 fold change; Dose.FC.CTG ([3]; Dose 0.08 uM, ENR+CD, 6 days): 0.199 log 2 fold change; Z.CTG [3, 4]: 0.475; Dose.FC.CTG ([3]; Dose 0.40 uM, ENR+CD, 6 days): −0.027 log 2 fold change; Z.CTG [3, 5]: −0.065; Dose.FC.CTG ([3]; Dose 2.00 uM, ENR+CD, 6 days): −0.184 log 2 fold change; Z.CTG [3, 6]: −0.439; Dose.FC.CTG ([3]; Dose 10.00 uM, ENR+CD, 6 days): −0.541 log 2 fold change; Z.CTG [3, 7]: −1.292

Q: For `CN1CCCCC1Cn1cc(C(=O)c2cc([N+](=O)[O-])ccc2I)c2ccccc21` (stereo not shown) [AM1241], which Dose.FC.LYZ.NS [1, 8] is on record?
A: The Dose.FC.LYZ.NS was 0.052 log 2 fold change.

Q: And the Z.LYZ.NS [1, 9]?
A: The Z.LYZ.NS was 0.454.

Q: And the Dose.FC.LYZ.NS [1, 10]?
A: The Dose.FC.LYZ.NS was 0.004 log 2 fold change.

Q: And the Z.LYZ.NS [1, 11]?
A: The Z.LYZ.NS was 0.035.

Q: What about the Dose.FC.LYZ.NS [1, 12] of the same compound?
A: The Dose.FC.LYZ.NS was −0.014 log 2 fold change.

Q: What about the Z.LYZ.NS [1, 13] of the same compound?
A: The Z.LYZ.NS was −0.123.

Q: And the Dose.FC.LYZ.NS [1, 14]?
A: The Dose.FC.LYZ.NS was −0.003 log 2 fold change.

Q: What about the Z.LYZ.NS [1, 15] of the same compound?
A: Its Z.LYZ.NS is −0.028.

Q: And the Dose.FC.LYZ.S [2, 8]?
A: The Dose.FC.LYZ.S was 0.046 log 2 fold change.

Q: And the Dose.FC.LYZ.S [2, 10]?
A: Its Dose.FC.LYZ.S is 0.088 log 2 fold change.

Q: And the Dose.FC.LYZ.S [2, 12]?
A: The Dose.FC.LYZ.S was −0.017 log 2 fold change.

Q: What about the Dose.FC.LYZ.S [2, 14] of the same compound?
A: Its Dose.FC.LYZ.S is −0.080 log 2 fold change.

Q: What about the Dose.FC.CTG [3, 8] of the same compound?
A: Its Dose.FC.CTG is 0.159 log 2 fold change.

Q: And the Z.CTG [3, 9]?
A: The Z.CTG was 0.379.

Q: What about the Dose.FC.CTG [3, 10] of the same compound?
A: Its Dose.FC.CTG is −0.054 log 2 fold change.

Q: And the Z.CTG [3, 11]?
A: The Z.CTG was −0.129.

Q: What about the Dose.FC.CTG [3, 12] of the same compound?
A: The Dose.FC.CTG was −0.062 log 2 fold change.

Q: What about the Z.CTG [3, 13] of the same compound?
A: The Z.CTG was −0.147.

Q: What about the Dose.FC.CTG [3, 14] of the same compound?
A: Its Dose.FC.CTG is −0.001 log 2 fold change.

Q: What about the Z.CTG [3, 15] of the same compound?
A: The Z.CTG was −0.002.

Q: What does the source list for `COC(=O)CCSCc1ccc(-c2onc(C)c2NC(=O)OC(C)c2ccccc2Cl)cc1` (stereo not shown) [Ki16198]?
A: Dose.FC.LYZ.NS ([1]; Dose 0.08 uM, primary screen): 0.005 log 2 fold change; Z.LYZ.NS [1, 16]: 0.044; Dose.FC.LYZ.NS ([1]; Dose 0.40 uM, primary screen): −0.009 log 2 fold change; Z.LYZ.NS [1, 17]: −0.076; Dose.FC.LYZ.NS ([1]; Dose 2.00 uM, primary screen): 0.060 log 2 fold change; Z.LYZ.NS [1, 18]: 0.519; Dose.FC.LYZ.NS ([1]; Dose 10.00 uM, primary screen): −0.103 log 2 fold change; Z.LYZ.NS [1, 19]: −0.899; SSMD.LYZ.NS [1, 20]: 0.052; SSMD.LYZ.NS [1, 21]: −0.083; SSMD.LYZ.NS [1, 22]: 0.211; SSMD.LYZ.NS [1, 23]: −0.914; Dose.FC.LYZ.S ([2]; Dose 0.08 uM, primary screen): 0.027 log 2 fold change; Dose.FC.LYZ.S ([2]; Dose 0.40 uM, primary screen): 0.031 log 2 fold change; Dose.FC.LYZ.S ([2]; Dose 2.00 uM, primary screen): −0.015 log 2 fold change; Dose.FC.LYZ.S ([2]; Dose 10.00 uM, primary screen): −0.037 log 2 fold change; Z.LYZ.S [2, 20]: 0.176; Z.LYZ.S [2, 21]: 0.204; Z.LYZ.S [2, 22]: −0.095; Z.LYZ.S [2, 23]: −0.239; SSMD.LYZ.S [2, 20]: 0.136; SSMD.LYZ.S [2, 21]: 0.231; SSMD.LYZ.S [2, 22]: −0.105; SSMD.LYZ.S [2, 23]: −0.262; Dose.FC.CTG ([3]; Dose 0.08 uM, primary screen): −0.011 log 2 fold change; Z.CTG [3, 16]: −0.026; Dose.FC.CTG ([3]; Dose 0.40 uM, primary screen): −0.108 log 2 fold change; Z.CTG [3, 17]: −0.258; Dose.FC.CTG ([3]; Dose 2.00 uM, primary screen): −0.033 log 2 fold change; Z.CTG [3, 18]: −0.078; Dose.FC.CTG ([3]; Dose 10.00 uM, primary screen): 0.022 log 2 fold change; Z.CTG [3, 19]: 0.052; SSMD.CTG [3, 20]: −0.028; SSMD.CTG [3, 21]: −0.359; SSMD.CTG [3, 22]: −0.118; SSMD.CTG [3, 23]: 0.073
